Assay results as given in PubChem BioAssay (NCI).
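96-well plates; 48 h exposure; 5 concentrations. Endpoints by linear interpolation between flanking doses. Not reached: highest tested concentration assigned. TGI marks complete inhibition of growth.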

What was measured:
Experiment in all cases: DTP human tumour cell line panel, 48 h
SF-268 CNS = system: SF-268 CNS
SK-MEL-2 melanoma = system: SK-MEL-2 melanoma
MALME-3M melanoma = system: MALME-3M melanoma
SK-MEL-28 melanoma = system: SK-MEL-28 melanoma
MDA-MB-231 breast = system: MDA-MB-231 breast
U251 CNS = system: U251 CNS
PC-3 prostate = system: PC-3 prostate
BT-549 breast = system: BT-549 breast
NCI-H23 lung = system: NCI-H23 lung
SNB-19 CNS = system: SNB-19 CNS
MCF7 breast = system: MCF7 breast
NCI-H522 lung = system: NCI-H522 lung
ACHN renal = system: ACHN renal
SF-295 CNS = system: SF-295 CNS
OVCAR-3 ovarian = system: OVCAR-3 ovarian
A549 NSCLC = system: A549 NSCLC
TK-10 renal = system: TK-10 renal
UACC-62 melanoma = system: UACC-62 melanoma
EKVX NSCLC = system: EKVX NSCLC
MDA-N = system: MDA-N
NCI/ADR-RES ovarian = system: NCI/ADR-RES ovarian
OVCAR-5 ovarian = system: OVCAR-5 ovarian
HCT-15 colon = system: HCT-15 colon
IGROV1 ovarian = system: IGROV1 ovarian
SW-620 colon = system: SW-620 colon
HCC-2998 colon = system: HCC-2998 colon
RXF 393 renal = system: RXF 393 renal
NCI-H460 lung = system: NCI-H460 lung
HT29 colon = system: HT29 colon
SR leukemia = system: SR leukemia
A498 renal = system: A498 renal
MOLT-4 leukemia = system: MOLT-4 leukemia
T-47D breast = system: T-47D breast
CCRF-CEM leukemia = system: CCRF-CEM leukemia
SK-OV-3 ovarian = system: SK-OV-3 ovarian
NCI-H226 lung = system: NCI-H226 lung
K-562 leukemia = system: K-562 leukemia
KM12 colon = system: KM12 colon
OVCAR-4 ovarian = system: OVCAR-4 ovarian
SN12C renal = system: SN12C renal
OVCAR-8 ovarian = system: OVCAR-8 ovarian
HS 578T breast = system: HS 578T breast
SK-MEL-5 melanoma = system: SK-MEL-5 melanoma
UACC-257 melanoma = system: UACC-257 melanoma
786-0 renal = system: 786-0 renal
DU-145 prostate = system: DU-145 prostate
M14 melanoma = system: M14 melanoma
CAKI-1 renal = system: CAKI-1 renal
UO-31 renal = system: UO-31 renal
COLO 205 colon = system: COLO 205 colon
HCT-116 colon = system: HCT-116 colon
HOP-62 NSCLC = system: HOP-62 NSCLC
RPMI-8226 leukemia = system: RPMI-8226 leukemia
SNB-75 CNS = system: SNB-75 CNS
MDA-MB-435 = system: MDA-MB-435
HOP-92 NSCLC = system: HOP-92 NSCLC
LOX IMVI melanoma = system: LOX IMVI melanoma
HL-60(TB) leukemia = system: HL-60(TB) leukemia
SF-539 CNS = system: SF-539 CNS

CCOC(=O)[C@H](C)OC(=O)[C@@](C)(NC(=O)c1ccccc1C(=O)OC)[C@@H]1NC=C(C(=O)OC)CS1
TGI (SF-268 CNS): > 100 µM
TGI (SK-MEL-2 melanoma): > 100 µM
TGI (MALME-3M melanoma): > 100 µM
TGI (SK-MEL-28 melanoma): > 100 µM
TGI (MDA-MB-231 breast): > 100 µM
TGI (U251 CNS): > 100 µM
TGI (PC-3 prostate): > 100 µM
TGI (BT-549 breast): > 100 µM
TGI (NCI-H23 lung): > 100 µM
TGI (SNB-19 CNS): > 100 µM
TGI (MCF7 breast): > 100 µM
TGI (NCI-H522 lung): > 100 µM
TGI (ACHN renal): > 100 µM
TGI (SF-295 CNS): > 100 µM
TGI (OVCAR-3 ovarian): > 100 µM
TGI (A549 NSCLC): > 100 µM
TGI (TK-10 renal): > 100 µM
TGI (UACC-62 melanoma): > 100 µM
TGI (EKVX NSCLC): > 100 µM
TGI (MDA-N): 64.6 µM
TGI (NCI/ADR-RES ovarian): > 100 µM
TGI (OVCAR-5 ovarian): > 100 µM
TGI (HCT-15 colon): > 100 µM
TGI (IGROV1 ovarian): > 100 µM
TGI (SW-620 colon): > 100 µM
TGI (HCC-2998 colon): > 100 µM
TGI (RXF 393 renal): > 100 µM
TGI (NCI-H460 lung): > 100 µM
TGI (HT29 colon): > 100 µM
TGI (SR leukemia): 46.5 µM
TGI (A498 renal): > 100 µM
TGI (MOLT-4 leukemia): > 100 µM
TGI (T-47D breast): > 100 µM
TGI (CCRF-CEM leukemia): 63.9 µM
TGI (SK-OV-3 ovarian): > 100 µM
TGI (NCI-H226 lung): > 100 µM
TGI (K-562 leukemia): > 100 µM
TGI (KM12 colon): > 100 µM
TGI (OVCAR-4 ovarian): > 100 µM
TGI (SN12C renal): > 100 µM
TGI (OVCAR-8 ovarian): > 100 µM
TGI (HS 578T breast): > 100 µM
TGI (SK-MEL-5 melanoma): > 100 µM
TGI (UACC-257 melanoma): > 100 µM
TGI (786-0 renal): > 100 µM
TGI (DU-145 prostate): > 100 µM
TGI (M14 melanoma): > 100 µM
TGI (CAKI-1 renal): > 100 µM
TGI (UO-31 renal): > 100 µM
TGI (COLO 205 colon): > 100 µM
TGI (HCT-116 colon): > 100 µM
TGI (HOP-62 NSCLC): > 100 µM
TGI (RPMI-8226 leukemia): > 100 µM
TGI (SNB-75 CNS): > 100 µM
TGI (MDA-MB-435): 85.6 µM

COc1ccc(C[C@H]2COC(=O)[C@@H]2Cc2cccc(Br)c2)cc1OC
TGI (SF-268 CNS): > 100 µM
TGI (SK-MEL-2 melanoma): 73.5 µM
TGI (MALME-3M melanoma): 47.6 µM
TGI (SK-MEL-28 melanoma): 68.4 µM
TGI (MDA-MB-231 breast): 64.9 µM
TGI (U251 CNS): 73.4 µM
TGI (PC-3 prostate): 53.6 µM
TGI (BT-549 breast): 61.2 µM
TGI (NCI-H23 lung): > 100 µM
TGI (SNB-19 CNS): > 100 µM
TGI (MCF7 breast): 63.2 µM
TGI (NCI-H522 lung): 47.5 µM
TGI (ACHN renal): 84.9 µM
TGI (SF-295 CNS): > 100 µM
TGI (OVCAR-3 ovarian): 60.4 µM
TGI (A549 NSCLC): > 100 µM
TGI (TK-10 renal): 82 µM
TGI (UACC-62 melanoma): > 100 µM
TGI (EKVX NSCLC): 97.1 µM
TGI (MDA-N): 60.1 µM
TGI (NCI/ADR-RES ovarian): > 100 µM
TGI (OVCAR-5 ovarian): > 100 µM
TGI (HCT-15 colon): > 100 µM
TGI (IGROV1 ovarian): > 100 µM
TGI (SW-620 colon): 83.3 µM
TGI (HCC-2998 colon): 66.4 µM
TGI (RXF 393 renal): 77.6 µM
TGI (HOP-92 NSCLC): 48.3 µM
TGI (LOX IMVI melanoma): 14.6 µM
TGI (NCI-H460 lung): 67.2 µM
TGI (HT29 colon): 60.8 µM
TGI (SR leukemia): 32.8 µM
TGI (MOLT-4 leukemia): 82.3 µM
TGI (T-47D breast): > 100 µM
TGI (HL-60(TB) leukemia): 38.6 µM
TGI (CCRF-CEM leukemia): 39.2 µM
TGI (SK-OV-3 ovarian): 66.4 µM
TGI (NCI-H226 lung): > 100 µM
TGI (K-562 leukemia): > 100 µM
TGI (KM12 colon): 43.3 µM
TGI (OVCAR-4 ovarian): 58 µM
TGI (SN12C renal): > 100 µM
TGI (OVCAR-8 ovarian): 69.6 µM
TGI (HS 578T breast): > 100 µM
TGI (SK-MEL-5 melanoma): 30.5 µM
TGI (UACC-257 melanoma): 56.2 µM
TGI (786-0 renal): > 100 µM
TGI (DU-145 prostate): > 100 µM
TGI (M14 melanoma): 27.8 µM
TGI (CAKI-1 renal): 30 µM
TGI (SF-539 CNS): 41.4 µM
TGI (UO-31 renal): 82.3 µM
TGI (COLO 205 colon): 28.7 µM
TGI (HCT-116 colon): > 100 µM
TGI (HOP-62 NSCLC): > 100 µM
TGI (RPMI-8226 leukemia): 56.1 µM
TGI (SNB-75 CNS): 55.5 µM
TGI (MDA-MB-435): 56.9 µM
